# Values of other authors in US20220296511A1, “COMPOSITIONS FOR DELIVERY OF DRUG COMBINATIONS TO TREAT LUNG DISEASE” (BOARD OF REGENTS, THE UNIVERSITY OF TEXAS SYSTEM, priority 2021, published 2022).
# Read-outs that look alike come from different tables or passages of the source.
# How the values were obtained:
# [1] = rats, 50 mg/mL MFF suspension for nebulization
# [2] = 150 mg oral dose
# [3] = phase 3 trial
# [4] = not given; remark: listed apart in the source
# [5] = not given; remark: listed apart in the source
smiles,measurement,setting,value
COc1c(C)c2c(c(O)c1C/C=C(\C)CCC(=O)O)C(=O)OC2 [mycophenolic acid],lung concentration of mycophenolic acid as % of serum concentration,[1],~30%
same,therapeutic range,in vivo,1.0 to 3.5 µg/mL
same,maximum plasma concentration decreased by food,oral,40%
COC(=O)c1ccc2c(c1)NC(=O)/C2=C(\Nc1ccc(N(C)C(=O)CN2CCN(C)CC2)cc1)c1ccccc1 [nintedanib],half-life,[2],9.49 h
same,plasma concentration,[2],0.12 ng/mL/mg
same,diarrhea reported,[3]; most common adverse reaction,66.9%
same,reduction of FVC,[3]; nintedanib group,−80.0 mL per year
Cc1ccc(=O)n(-c2ccccc2)c1 [pirfenidone],plasma concentration,[4]; 801 mg oral dose,5000 ng/mL
same,lung concentration,"[4]; 801 mg oral dose, worked out from plasma concentration",0.7 µg/g
same,lung tissue concentration as percentage of plasma concentration,[4]; IV dose 40 mg/kg,nine
same,pirfenidone decreased by food,[4]; oral,50%
same,aerosol epithelial lining fluid (ELF) concentration relative to 801 mg oral,[5]; 100 mg aerosol pirfenidone,35 times
same,systemic exposure less than the oral delivery,[5]; 100 mg inhalation dose,15 fold
